Source: patent US20240270713A1, “NOVEL COMPOUND EXHIBITING THERAPEUTIC EFFECT ON INFLAMMATORY DISEASE AS P38 MAP KINASE INHIBITOR” (PRAZERTHERAPEUTICS INC., priority 2021, published 2024)
pIC50: −log10 of the molar value.

Legend:
[1] = target: p38 alpha (Homo sapiens (Human), UniProt Q16539); assay: p38α MAPK inhibitory ability (peptide/kinase mixture, development reagent, 445/520 nm); format: biochemical; details: 1 hour at room temperature
Description: Evaluation of p38a mitogen-activated protein kinase (MAPK) inhibitory ability
To determine the ability to inhibit p38 MAPK, Compounds 1 to 5 were diluted to determine the inhibitory effect depending on a concentration. Briefly, the compounds were diluted at concentrations of 1000, 333, 111, 37.0, 12.3, 4.12, 1.37, 0.457, 0.152, and 0.0495 nM, respectively, and then a peptide/kinase mixture (final 7.07-28.3 ng p38 alpha, 2 μM serine/threonine 15, 50 mM HEPES pH 7.0, 0.01% NaN3) and ATP solution were added respectively. After reacting at room temperature for 1 hour, a development reagent was added, followed by a reaction again at room temperature for 1 hour.

[2] = target: p-p38 MAPK (Mus musculus (Mouse), UniProt P47811); assay: p38 MAPK protein inhibitory ability in cells (p-p38 immunoblot, LPS-treated Raw264.7); format: cell-based; details: Raw264.7 cells, 1 μM compound 24 hours, then 100 ng/ml LPS 6 hours
p-p38 MAPK, sequence (P47811 whole entry): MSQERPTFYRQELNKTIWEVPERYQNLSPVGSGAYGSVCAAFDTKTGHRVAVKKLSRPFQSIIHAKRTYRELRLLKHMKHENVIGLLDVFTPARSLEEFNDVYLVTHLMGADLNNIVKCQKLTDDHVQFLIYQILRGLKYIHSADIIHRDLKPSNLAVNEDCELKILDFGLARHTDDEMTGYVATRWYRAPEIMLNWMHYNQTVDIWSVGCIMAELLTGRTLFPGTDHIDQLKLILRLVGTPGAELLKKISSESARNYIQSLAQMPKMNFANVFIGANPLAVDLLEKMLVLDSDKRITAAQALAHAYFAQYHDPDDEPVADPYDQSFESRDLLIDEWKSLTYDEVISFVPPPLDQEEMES
Description: Evaluation of p38 MAPK protein inhibitory ability in cells
(§1) In order to identify inhibition of p-p38 MAPK, inhibition of p38 MAPK was identified after treating each compound to Raw264.7 cells which are obtained by converting macrophages that induces inflammation according to p-p38 MAPK activity into cancerous cells. Briefly, Raw264.7 cells were cultured in Dulbecco's modified Eagle Medium supplemented with 10% fetal bovine serum and penicillin/streptomycin (100 U/ml). Raw264.7 cells were treated with 1 μM of Compounds 1 to 5 according to the present disclosure in a culture dish respectively and cultured for 24 hours in a CO2 incubator, and then treated with 100 ng/ml of LPS, followed by additional culture for 6 hours in a CO2 incubator.
After cell culture was terminated according to the experimental conditions, cells were washed with cold phosphate buffered saline (PBS). The cells were then collected and centrifuged at 1200 rpm for 3 minutes. The pellet was lysed with 2X sample buffer (1M Tris-HCl pH 6.8, 50% glycerol, 10% SDS, 2-mercaptoethanol, 1% bromophenol blue) and boiled at 100° C. for 10 minutes. The prepared protein samples were subjected to sodium dodecyl sulfate poly acrylamide gel electrophoresis and transferred to PVDF membrane (Millipore). For a specific binding reaction between the protein in the PVDF membrane and antibody, blocking was performed in a 5% bovine serum albumin (BSA, RMbio) solution. Subsequently, the BSA solution was discarded, and the membrane was washed with PBS-T (0.5% Tween 20 in PBS). The binding reaction of the protein in the membrane and antibody was performed overnight at 4° C. and washed again with PBS-T. Finally, a secondary antibody (Cell signaling Technology) conjugated with horse radish peroxidase (HRP) was diluted in PBS-T and reacted at room temperature for 2 hours. Luminata Forte HRP substrate (Millipore) was used to determine the amount of protein in the membrane, the results of which are shown in Table 4 below.

[3] = tested on: TNFα mRNA; assay: Cytokine mRNA expression inhibitory ability, TNFα, LPS-treated BV2 cells; format: cell-based; details: 1 μM compound 24 hours, then 1000 ng/ml LPS 24 hours
Description: Evaluation of cytokine mRNA expression inhibitory ability by inflammatory response
In order to identify inhibition of p-p38 MAPK, the inhibition of p38 MAPK was identified by treating each compound to BV2 cells obtained by converting microglia that induces inflammation according to p-p38 MAPK activity in the brain into cancerous cells. Briefly, BV2 cells were cultured in Dulbecco's modified Eagle Medium supplemented with 10% fetal bovine serum and penicillin/streptomycin (100 U/ml). BV2 cells were treated with 1 μM of Compounds 4 to 6 according to the present disclosure in a culture dish respectively and cultured for 24 hours in a CO2 incubator, and then treated with 1000 ng/ml of LPS, followed by additional culture for 24 hours in a CO2 incubator.
After the cell culture was completed according to the experimental conditions, washing was performed with cold phosphate buffered saline (PBS). The cells were then collected and centrifuged at 1200 rpm for 3 minutes. RNA was extracted according to the method provided in the Hybrid-R total RNA purification kit (GeneAllR), 305-101). After measuring the concentration and purity of RNA using Nanodrop, cDNA was synthesized according to the method provided in TOPscript RT DryMIX (Enzynomics, RT200). […]

[4] = tested on: TNFα mRNA; assay: Cytokine mRNA expression inhibitory ability, TNFα, LPS-treated Raw264.7 cells; format: cell-based; details: 1 μM compound 24 hours, then 100 ng/ml LPS 24 hours
Description: Evaluation of cytokine mRNA expression inhibitory ability according to inflammatory response
as §1, with “cells” for “cells which are”, “activity” for “activity into”, “for 24” for “for 6”
After cell culture was terminated according to the experimental conditions, cells were washed with cold phosphate buffered saline (PBS). The cells were then collected and centrifuged at 1200 rpm for 3 minutes. RNA was extracted according to the method provided in the Hybrid-R total RNA purification kit (GeneAll, 305-101). After measuring the concentration and purity of RNA using Nanodrop, cDNA was synthesized according to the method provided in TOPscript RT DryMIX (Enzynomics, RT200). After a reaction at 95° C. for 3 minutes using SYBR Green Mix along with primer, cDNA was subjected to repetitive reactions 30 times at 95° C. for 10 seconds, at 55° C. for 10 seconds, and at 72° C. for 30 seconds to determine the RNA expression level. The results are shown in Tables 5 and 6 below and FIGS. 1 and 2.

p38 alpha, sequence (Q16539 whole entry): as the sequence (P47811 whole entry) above, with H48L, A263T counted along it

pIC50 [1]: 7.73 | inhibition at 1 µM [2]: 68%
Compound: Cc1c(F)cc(C(=O)NC2CC2)cc1-c1ccc(C(=O)c2c[nH]c3ccccc23)cn1 [Compound 4, 3-(5-(1H-indole-3-carbonyl)pyridin-2-yl)-N-cyclopropyl-5-fluoro-4-methylbenzamide]
TNFα mRNA inhibition [3]: 24.5% | TNFα mRNA inhibition [4]: 51.5%
